According to EP2022796A1, “Amorphous ciclesonide” (Nycomed GmbH, priority 2007, dated 2009):
Values after ≈ are worked out from the molar mass of the structure shown.

Legend:
Format in all cases: physicochemical
[1] = Saturation solubility experiments in water; conditions: 37°C, 30 min ultrasonic treatment then stirred 24 hours; for saturation solubility: 1440 min
Procedure: Defined amounts of in each case about 14 to 25 mg of X-ray amorphous or crystalline ciclesonide were weighed into a conical Erlenmeyer flask equipped with a rubber stopper (n = 3). 100 ml of water (Millipore quality, ELIX 3, Gradient A 10, pH 5.92 - 6.00) were added and 30 minutes of ultrasonic treatment was applied to the samples. Afterwards the samples were stirred in the dark for 24 hours at 37°C in a water bath. After the desired stirring time, each sample was filtered through a 0.2 µm membrane filter (Schleicher & Schuell, RC 0.2 µm Spartan 30/A) and concentrated on a Sep-Pak cartridge (Waters Sep-Pak cartridge C18, WAT051910). Then the cartridge was eluted with ethanol (gradient grade, Merck). The ciclesonide in the ethanol solution was then quantified by HPLC (LaChrom®-HPLC System Series 7000, column: Zorbax SB phenyl, eluent: water/ethanol 38 % : 62 % (v/v) isocratic, column temperature: 60°C, injection volume: 50 µL, UV-detection at 243 nm) against an external standard.

[2] = Dissolution experiments in water (dissolution kinetics); conditions: 37°C
Procedure: For each timepoint (5 min, 10 min, 20 min, 35 min, 60 min and 1440 min) of the dissolution experiment, three samples each of X-ray amorphous and crystalline ciclesonide were prepared by weighing a defined amount of in each case about 15 mg into a 250 ml conical wide-necked Erlenmeyer flask and stirring (850 rpm, glass coated magnetic stir bar, having a length of 2.4 cm and a diameter of 0.59 cm) the samples at 37°C in 100 ml water (Millipore quality, ELIX 3, Gradient A 10, pH 5.92 - 6.00). The moment of the addition of water was defined as to. The tempering of the samples was performed using an air bath. After the desired stirring time, the complete samples were filtered through a 0.2 µm membrane filter (Schleicher & Schuell, RC 0.2 µm Spartan 30/A) and concentrated on a Sep-Pak cartridge (Waters Sep-Pak cartridge C18, WAT051910). The cartridge was then eluted with ethanol (gradient grade, Merck). The ciclesonide in the ethanol solution was then quantified by HPLC (LaChrom®-HPLC System Series 7000, column: Zorbax SB phenyl, eluent: water/ethanol 38 % : 62 % (v/v) isocratic, column temperature: 60°C, injection volume: 50 µL, UV-detection at 243 nm) against an external standard.

[3] = Stability under elevated pressure (recrystallization); conditions: pressure of up to 2.500 for 5 min
Source text: Such a stability against pressure is particularly desirable when a pharmaceutical agent is used for preparation of solid pharmaceutical compositions such as tablets or granules.

Hygroscopicity = experiment: Hygroscopicity
[4] = listed as crystalline form of ciclesonide

Row | solubility at 24 h [1] [µg/mL] | saturation solubility [1] [µg/L] | saturation solubility [1, 4] | solubility at 1 h ([2]; after 1 hour) [µg/mL] | concentration of dissolved ciclesonide after 24 hours [2] [µg/L] | concentration of dissolved ciclesonide after 24 hours [2, 4] | hygroscopicity (Hygroscopicity) | concentration of dissolved ingredient within 5 minutes ([2]; 5 minutes) [µg/L] | concentration of dissolved ingredient after 20 minutes ([2]; 20 minutes) [µg/L] | concentration of dissolved ingredient relative to crystalline ciclesonide after 1 hour ([2]; after 1 hour, amorphous versus crystalline) | Compound | stability under pressure (signs of recrystallization) [3]
1 | 0.091 (≈ 0.168 µM) | 90.1 ± 2.2 | about 91 µg/l | ~0.05 (≈ 0.0925 µM) | 64 | about 64 µg/l |  |  |  |  | CC(C)C(=O)OCC(=O)C12OC(C3CCCCC3)OC1CC1C3CCC4=CC(=O)C=CC4(C)C3C(O)CC12C (stereo not drawn) [crystalline ciclesonide, 16,17-[(Cyclohexyl-methylene)bis(oxy)]-11-hydroxy-21-(2-methyl-1-oxopropoxy)-pregna-1,4-diene-3,20-dione[11β,16α], reference compound] | 
2 |  | 91.6 ± 5.2 |  |  | 105 |  | not hygroscopic | 290 | 340 | about sevenfold higher | CC(C)C(=O)OCC(=O)C12OC(C3CCCCC3)OC1CC1C3CCC4=CC(=O)C=CC4(C)C3C(O)CC12C (stereo not drawn) [amorphous ciclesonide, 16,17-[(Cyclohexyl-methylene)bis(oxy)]-11-hydroxy-21-(2-methyl-1-oxopropoxy)-pregna-1,4-diene-3,20-dione[11β,16α]] | did not show any signs of recrystallization
